Experimental findings from US20030198692A1, “Microbial inhibitory compositions” (priority 2000, published 2003) are described below.

Format in all cases: cell-based
The test system of one assay is Pseudomonas aeruginosa. Nature of the assay: Growth of Pseudomonas aeruginosa in the presence of furanones, alone or with a cell-permeabilising agent. As to conditions: for prevention of growth of P. aeruginosa (ranking): furanone 10 μg/ml with EDTA 0.02%. The method, then:
Ten furanones (compounds 2, 3, 19, 30, 45, 55, 56, 24/25, 26/27 and 33/34) (see Table 2) were tested against growth of Gram negative bacteria in a combination treatment using a cell permeabilising agent (Polymyxin B and EDTA).
Different furanone compounds under test were applied at 10 μg/ml (concentration of stock solution of furanone compound or mixture of compounds was 2 mg/ml) and polymyxin B was employed at concentrations which ranged from 0.3-1 μg/ml (stock solution was 10 mg/ml).
In addition, EDTA which also affects the permeability of the cell membrane was tested against growth of P. aeruginosa in combination with the different furanones. EDTA was added at a concentration of 0.02%. […] It is possible that they differently allow for different furanones to penetrate the cell membrane.
Growth of Pseudomonas aeruginosa in the presence of citric acid, toluene, Tween 80 and two different quaternary ammonium compounds was further investigated. The tested furanones was furanone 30 and 34 at 10 μg/ml (concentration of stock solution of furanone compound was 10 mg/ml). The used cell-permeability agents were employed at concentrations which ranged from 0.35-0.001%.

In a further assay the test system is Candida albicans. Description: Growth of Candida albicans in the presence of furanone 57 with or without EDTA. The method, then:
The yeast, Candida albicans, was tested in the presence of furanone 57 at 250 ng/ml. […] In combination with 0.01% EDTA the growth of the cells was inhibited for at least 32 hrs.

The test system of another assay is Escherichia coli. Description: Growth of Escherichia coli in the presence of polymyxin B and furanones. As to conditions: furanone 10 μg/ml with polymyxin B 0.3-1 μg/ml. The method, then:
Growth of Gram negative bacteria is not generally affected by furanone compounds alone. […] In order to explore this concept, the antibiotic polymyxin B was included in the initial round of experiments (see FIGS. 2, 3 and 4) involving the bacteria Escherichia coli, Burkholdera cepacia and Pseudomonas aeruginosa. […] Different furanone compounds under test were applied at 10 μg/ml (concentration of stock solution of furanone compound or mixture of compounds was 2 mg/ml) and polymyxin B was employed at concentrations which ranged from 0.3-1 μg/ml (stock solution was 10 mg/ml).

Another assay has as its system Corynebacterium jeikeium. Nature of the assay: Growth of Corynebacterium jeikeium in the presence of furanone 2 and EDTA. The following applies: compound 100 μg/ml in combination with EDTA 0.02%. The method, then: Moreover, the growth of the Gram-positive bacteria, Corynebacterium jeikeium, was inhibited by compound 2 (100 μg/ml) in combination with EDTA (0.02%). The lagphase of growth was prolonged for 20 hr.

Where [1] appears, read: furanone 10 μg/ml in combination with citric acid.

Consider `CCCCCC(Br)C1=CC(=C(Br)Br)OC1=O` (centres unmarked) [Compound 34], for which, in the assay with Pseudomonas aeruginosa (setting [1]), the “prolongation of lag phase of growth of P. aeruginosa” value is listed as “approximately 3 hours”.

As to `CCCCCC(F)C1=C(Br)/C(=C/Br)OC1=O` (centres unmarked) [Compound 57], the “duration of inhibition of growth of C. albicans cells” value in the assay with Candida albicans (compound 250 ng/ml alone) was 24 h; with Candida albicans (compound 250 ng/ml in combination with 0.01% EDTA), “at least 32 hrs”.

As to `O=C1C=C/C(=C/Br)O1` [Compound 56], the “prevention of growth of P. aeruginosa (ranking)” value with Pseudomonas aeruginosa is “most effective compounds in preventing growth”.

Turning to `CCCC(F)C1=C(Br)/C(=C/Br)OC1=O` (centres unmarked) [Compound 45], in the assay on Escherichia coli, the “time period of inhibition of growth of E. coli” value was 8 h.

For the molecule `O=C1C=C(Br)/C(=C/Br)O1` [Compound 30], in the assay on Pseudomonas aeruginosa (setting [1]), the “prolongation of lag phase of growth of P. aeruginosa (in words)” value was “also prolonged the lag phase of growth however not as strongly as compound 34”. In addition, the “prevention of growth of P. aeruginosa (ranking)” value in the assay with Pseudomonas aeruginosa is reported as “most effective compounds in preventing growth”. Further, the “growth of P. aeruginosa” value in the assay with Pseudomonas aeruginosa (furanone 10 μg/ml with Tween 80) was “slight growth inhibition”; in the assay on Pseudomonas aeruginosa (furanone 10 μg/ml with didecyldimethylammonium bromide), “inhibited the growth of P. aeruginosa”; in the assay on Pseudomonas aeruginosa (furanone 10 μg/ml with tetrabutylammoniumhydrogen sulfate (slightly more active of the two quaternary ammonium compounds)), “inhibited the growth of P. aeruginosa”. In the assay on Pseudomonas aeruginosa (furanone 10 μg/ml with polymyxin B 0.3-1 μg/ml), the “activity against P. aeruginosa (ranking)” value was “most active compound”.

With `CCCCC1=C(Br)C(=C(Br)Br)OC1=O` [Compound 2], the “time period of inhibition of growth of E. coli” value in the assay on Escherichia coli amounted to 8 h. Besides, in the assay on Corynebacterium jeikeium, the “growth of Corynebacterium jeikeium” value is “inhibited” and the “prolongation of lag phase of growth of Corynebacterium jeikeium” value worked out at 20 h.
